Measured values reported in US7964560B2, “Hepatitis C virus inhibitors” (Bristol-Myers Squibb Company, priority 2008, dated 2011).
Where two headings read alike, the source gives them in different places.

Assays:
[1] = tested on: HCV replicon in HUH-7 cells; experiment: HCV replicon FRET assay; assay type: cell-based, Hepatitis C virus (strain 1b); conditions: Hepatitis C virus
Description: An HCV replicon whole cell system was established as described by Lohmann, V. et al., Science, 285(5424):110-113 (1999). This system enabled us to evaluate the effects of our HCV Protease compounds on HCV RNA replication. Briefly, using the HCV strain 1b sequence described in the Lohmann paper (Accession number: AJ238799), an HCV cDNA was synthesized by Operon Technologies, Inc. (Alameda, Calif.), and the full-length replicon was then assembled in plasmid pGem9zf(+) (Promega, Madison, Wis.) using standard molecular biology techniques. The replicon consists of (i) the HCV 5′ UTR fused to the first 12 amino acids of the capsid protein, (ii) the neomycin phosphotransferase gene (neo), (iii) the IRES from encephalomyocarditis virus (EMCV), and (iv) HCV NS3 to NS5B genes and the HCV 3′ UTR. Plasmid DNAs were linearized with ScaI and RNA transcripts were synthesized in vitro using the T7 MegaScript transcription kit (Ambion, Austin, Tex.) according to manufacturer's directions. In vitro transcripts of the cDNA were transfected into the human hepatoma cell line, HUH-7. […] Resulting cell lines were characterized for positive and negative strand RNA production and protein production over time.
The HCV replicon FRET assay was developed to monitor the inhibitory effects of compounds described in the disclosure on HCV viral replication. HUH-7 cells, constitutively expressing the HCV replicon, were grown in Dulbecco's Modified Eagle Media (DMEM) (Gibco-BRL) containing 10% Fetal calf serum (FCS) (Sigma) and 1 mg/ml G418 (Gibco-BRL). Cells were seeded the night before (1.5×10^4 cells/well) in 96-well tissue-culture sterile plates. Compound and no compound controls were prepared in DMEM containing 4% FCS, 1:100 Penicillin/Streptomysin (Gibco-BRL), 1:100 L-glutamine and 5% DMSO in the dilution plate (0.5% DMSO final concentration in the assay). Compound/DMSO mixes were added to the cells and incubated for 4 days at 37° C. After 4 days, cells were first assessed for cytotoxicity using alamar Blue (Trek Diagnostic Systems) for a CC50 reading. The toxicity of compound (CC50) was determined by adding 1/10th volume of alamar Blue to the media incubating the cells. After 4 h, the fluorescence signal from each well was read, with an excitation wavelength at 530 nm and an emission wavelength of 580 nm, using the CYTOFLUOR® Series 4000 (Perspective Biosystems). Plates were then rinsed thoroughly with Phosphate-Buffered Saline (PBS) (3 times 150 μl). The cells were lysed with 25 μl of a lysis assay reagent containing an HCV protease substrate (5× cell Luciferase cell culture lysis reagent (PROMEGA® #E153A) diluted to 1× with distilled water, NaCl added to 150 mM final, the FRET peptide substrate (as described for the enzyme assay above) diluted to 10 μM final from a 2 mM stock in 100% DMSO. The plate was then placed into the CYTOFLUOR® 4000 instrument which had been set to 340 nm excitation/490 nm emission, automatic mode for 21 cycles and the plate read in a kinetic mode. EC50 determinations were carried out as described for the IC50 determinations.

[2] = tested on: HCV replicon (Renilla luciferase reporter) in HUH-7 cells; experiment: HCV replicon luciferase reporter assay; assay type: cell-based, Hepatitis C virus (strain 1b); conditions: Huh-7, 96 h, 4 days
human liver cathepsin B = target: T1, human liver cathepsin B (Homo sapiens, UniProt P07858); experiment: Specificity assay, cathepsin B; assay type: biochemical
T1 construct: purchased Sigma, EMDbiosciences; host or cells: human liver
Method: The specificities of compounds of the present disclosure were determined against a variety of serine proteases: human neutrophil elastase (HNE), porcine pancreatic elastase (PPE) and human pancreatic chymotrypsin and one cysteine protease: human liver cathepsin B. In all cases a 96-well plate format protocol using a fluorometric Amino-Methyl-Coumarin (AMC) substrate specific for each enzyme was used as described previously (PCT Patent Application No. WO 00/09543) with some modifications to the serine protease assays. All enzymes were purchased from Sigma, EMDbiosciences while the substrates were from Bachem, Sigma and EMDbiosciences.
Compound concentrations varied from 100 to 0.4 μM depending on their potency. The enzyme assays were each initiated by addition of substrate to enzyme-inhibitor pre-incubated for 10 min at room temperature and hydrolysis to 15% conversion as measured on CYTOFLUOR®.
100 mM NaOAC (Sodium Acetate) pH 5.5, 3% DMSO, 1 mM TCEP (Tris(2-carboxyethyl)phosphine hydrochloride), 5 nM Cathepsin B (enzyme stock activated in buffer containing 20 mM TCEP before use), and 2 μM Z-FR-AMC diluted in H2O.
The percentage of inhibition was calculated using the formula: [1−((UVinh−UVblank)/(UVctl−UVblank))]×100
A non-linear curve fit was applied to the inhibition-concentration data, and the 50% effective concentration (IC50) was calculated by the use of Excel XLfit software.

For `C=C[C@@H]1C[C@]1(NC(=O)[C@@H]1C[C@@](SCCCC)(c2ccc(-c3ccccc3)cc2)CN1C(=O)[C@@H](NC(=O)OC(C)(C)C)C(C)(C)C)C(=O)NS(=O)(=O)C1CC1` [Example 1, tert-butyl (S)-1-((2S,4R)-4-(biphenyl-4-yl)-4-(butylthio)-2-((1R,2S)-1-(cyclopropylsulfonylcarbamoyl)-2-vinylcyclopropylcarbamoyl)pyrrolidin-1-yl)-3,3-dimethyl-1-oxobutan-2-ylcarbamate], the EC50 ([1]; 96 h, HUH-7 replicon cells, 4 days, read-out: EC50 value in the replicon FRET assay) was 7.3 nM, the EC50 ([1]; Huh-7) was 7.2 to 22 nM and the EC50 [2] was 6 nM. The IC50 (human liver cathepsin B) was 7500 nM.
